{
  "source": "patent US7595169B2",
  "about": "“Method for determining percent platelet aggregation” (Accumetrics, Inc., priority 2005, dated 2009)",
  "origin": "cited, not measured here",
  "test_system": "platelet aggregation",
  "details": "patients with stable angina pectoris scheduled for elective coronary stent placement; literature study",
  "data": [
    {"compound": "COC(=O)[C@H](c1ccccc1Cl)N1CCc2sccc2C1", "note": "[clopidogrel]", "values": [
      {"measurement": "patients receiving the drug who did not achieve the expected platelet aggregation inhibition", "value": "at least 10%"}
    ]}
  ]
}
